Source: the supplement of paper PMC9337992

Columns and labels:
Experiment in all cases: cell confluence relative to DMSO control; higher = less growth inhibition
Settings in all cases: 5 d
BT20 = test system: BT20
Experimental: (§1)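 MS023 dose-response (9 concentrations, 40 nM to 10 uM) across TNBC cell lines. Cell confluence was monitored by IncuCyte live-cell imaging for 5 d and normalised to DMSO; n = 4 replicates.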

MDA-MB-157 = test system: MDA-MB-157
Experimental: as §1

BT549 = test system: BT549
Experimental: as §1

HCC1395 = test system: HCC1395
Experimental: as §1

MX1 = test system: MX1
Experimental: as §1

HCC38 = test system: HCC38
Experimental: as §1

CAL85-1 = test system: CAL85-1
Experimental: as §1

Hs578T = test system: Hs578T
Experimental: as §1

HCC70 = test system: HCC70
Experimental: as §1

CAL120 = test system: CAL120
Experimental: as §1

HCC1806 = test system: HCC1806
Experimental: as §1

HCC3153 = test system: HCC3153
Experimental: as §1

SUM159 = test system: SUM159
Experimental: as §1

MDAMB231 = test system: MDAMB231
Experimental: as §1

MDA-MB436 = test system: MDA-MB436
Experimental: as §1

HCC1143 = test system: HCC1143
Experimental: as §1

SUM149 = test system: SUM149
Experimental: as §1

MDA-MB468 = test system: MDA-MB468
Experimental: as §1

CC(C)Oc1ccc(-c2c[nH]cc2CN(C)CCN)cc1 [MS023]
cell confluence [%]
Settings | log10 MS023 concentration (log10 uM): 0.09691 | log10 MS023 concentration (log10 uM): 0.39794 | log10 MS023 concentration (log10 uM): 0.69897 | log10 MS023 concentration (log10 uM): 1 | log10 MS023 concentration (log10 uM): -0.20412 | log10 MS023 concentration (log10 uM): -0.50515 | log10 MS023 concentration (log10 uM): -0.80618 | log10 MS023 concentration (log10 uM): -1.10721 | log10 MS023 concentration (log10 uM): -1.40824
BT20 | 102 | 98.2 | 99.8 | 91.7 | 100 | 102 | 101 | 93.8 | 96.5
BT549 | 91.8 | 85.7 | 61.5 | 53.4 | 99.5 | 97.3 | 103 | 109 | 98.8
CAL85-1 | 84.2 | 70.6 | 59.1 | 39.6 | 95.4 | 98.7 | 99.6 | 98.1 | 96
CAL120 | 100.06 | 100.1 | 100 | 99.59 | 100.2 | 99.99 | 100.2 | 100 | 100.1
HCC38 | 95.7 | 86.4 | 76.9 | 60.3 | 98.1 | 99.1 | 100 | 100.3 | 100.1
HCC70 | 73.3 | 67.8 | 54.4 | 39.5 | 86 | 80 | 91.3 | 89.3 | 96.6
HCC1143 | 84.3 | 52.5 | 26 | 21.1 | 82.8 | 89.9 | 96.6 | 100 | 98.5
HCC1395 | 101 | 92.8 | 70.3 | 53.3 | 102 | 107 | 107 | 108 | 108
HCC1806 | 94.2 | 97.4 | 84.6 | 66.6 | 100 | 100 | 100 | 101 | 103
HCC3153 | 95 | 85.4 | 67.3 | 51.9 | 98.1 | 98.44 | 99.3 | 99.5 | 98.93
Hs578T | 99.47 | 97.79 | 89.9 | 79.6 | 99.79 | 99.921 | 99.933 | 99.898 | 99.921
MDA-MB436 | 70.9 | 33.6 | 24.4 | 22.9 | 78.1 | 82.9 | 97.9 | 96.2 | 100
MDA-MB468 | 58.7 | 35.8 | 36.3 | 25.3 | 79.5 | 95.1 | 94.8 | 96.2 | 98.5
MDA-MB-157 | 93.1 | 93.3 | 88.9 | 81.4 | 95.6 | 101 | 99.7 | 100 | 98.2
MDAMB231 | 96.77 | 88.2 | 71 | 61.1 | 99.56 | 99.8 | 99.9 | 99.943 | 99.978
MX1 | 93.6 | 83.1 | 48.8 | 33.3 | 95.8 | 100 | 99.8 | 97.8 | 98.4
SUM149 | 94.1 | 79.9 | 53.5 | 38.4 | 99.14 | 98.7 | 97.9 | 99.1 | 95.4
SUM159 | 93 | 49.6 | 25.1 | 26.3 | 98.2 | 99.11 | 99.03 | 99.4 | 98.1
